Measured values reported in patent publication US5118392A, “Separation of trichloroethylene from a butyl alcohol by extractive distillation” (priority 1991, dated 1992).
Where two headings read alike, the source gives them in different places. Blank lines part the entries; values can stand above or below the molecule they belong to.

What was measured:
[1] = Vapor-liquid equilibrium still, t-butanol-trichloroethylene azeotrope with extractive distillation agent; format: physicochemical; conditions: for Relative Volatility: trichloroethylene from t-butanol, Table 10
Description: (§1) The data in Tables 2, 3, 5, 7, 8, 10 and 11 was obtained in a vapor-liquid equilibrium still. In every case, the starting mixture was the trichloroethylene-butanol azeotrope. The relative volatilities are listed for each of the agents.
Seventy grams of the t-butanol-trichloroethylene azeotrope and 30 grams of n-butyl acetate were charged to the vapor-liquid equilibrium still and refluxed for fourteen hours.

[2] = Vapor-liquid equilibrium still, trichloroethylene-n-butanol azeotrope with extractive distillation agent; format: physicochemical
[3] = Vapor-liquid equilibrium still, trichloroethylene-2-butanol azeotrope with extractive distillation agent; format: physicochemical
Description: as §1
Seventy grams of the trichloroethylene-2-butanol azeotrope and 30 grams of 2-methyl-1-pentanol were charged to the vapor-liquid equilibrium still and refluxed for two hours.

[4] = Vapor-liquid equilibrium still, trichloroethylene-isobutanol azeotrope with extractive distillation agent; format: physicochemical
Description: as §1
Seventy grams of the trichloroethylene-isobutanol azeotrope and 30 grams of n-octanol were charged to the vapor-liquid equilibrium still and refluxed for five hours.

[5] = Glass perforated plate rectification column (7.3 theoretical plates), trichloroethylene / 2-butanol; format: physicochemical
Description: The overhead analysis was 98.2% trichloroethylene, 1.8% 2-butanol and the bottoms analysis was 65.6% trichloroethylene, 34.4% 2-butanol. This gives an average relative volatility of 1.59 for each theoretical plate.

[6] = Experimental: A solution comprising 170 grams of trichloroethylene and 30 grams of t-butanol was placed in the stillpot of the 7.3 theoretical plate glass perforated plate rectification column. When refluxing began, an extractive agent comprising n-butyl acetate was pumped into the column at a rate of 15 ml/min. The temperature of the extractive agent as it entered the column was 85° C. After establishing the feed rate of the extractive agent, the heat input to the trichloroethylene-t-butanol in the stillpot was adjusted to give a total reflux rate of 40 ml/min. After two hours of operation, the overhead and bottoms samples were collected and analysed.
[7] = Glass perforated plate rectification column (7.3 theoretical plates), trichloroethylene / isobutanol; format: physicochemical
Description: The overhead analysis was 97.7% trichloroethylene, 2.3% isobutanol and the bottoms analysis was 84.8% trichloroethylene, 15.2% isobutanol. This gives an average relative volatility of 1.31 for each theoretical plate.

[8] = trichloroethylene from n-butanol, Table 2
[9] = trichloroethylene from 2-butanol, Table 7
[10] = trichloroethylene from isobutanol, Table 5
[11] = Example 7, refluxed fourteen hours
[12] = bottoms, 2 hrs, listed as n-butyl acetate
[13] = overhead, 2 hrs, listed as n-butyl acetate

Relative Volatility [1]: 1.85
Molecule: 2-Methoxyethyl ether acetate

Molecule: CC(=O)O[C@@H]1C[C@H]2CC[C@]1(C)C2(C)C (racemic) [Isobornyl acetate]
Relative Volatility [2, 8]: 1.25

Molecule: COCC(C)OC(C)=O (stereo not shown) [1-Methoxy-2-propanol acetate]
Relative Volatility [2]: 1.5 | Relative Volatility [1]: 1.65

Molecule: COCC(C)O (stereo not shown) [1-Methoxy-2-propanol]
Relative Volatility [1]: 1.65

Molecule: CCCCCCCCO [1-Octanol]
Relative Volatility [3, 9]: 1.5

Molecule: CC(=O)CC(C)=O [2,4-Pentanedione]
Relative Volatility [1]: 1.4

Relative Volatility [2, 8]: 1.35
Molecule: CC(C)CC(=O)CC(C)C [2,6-Dimethyl-4-heptanone]

Relative Volatility [3, 9]: 1.85
Molecule: CCC(CC)CO [2-Ethyl butanol]

Relative Volatility [3, 9]: 1.55
Molecule: CCCCC(CC)CO (stereo not shown) [2-Ethyl-1-hexanol]

Molecule: CCCCCC(C)=O [2-Heptanone]
Relative Volatility [2, 8]: 1.7

Molecule: CCCC(C)CO (stereo not shown) [2-Methyl pentanol]
Relative Volatility [2, 8]: 3.5

Molecule: CCCC(C)CO (stereo not shown) [2-Methyl-1-pentanol]
Relative Volatility [4, 10]: 2.2 | liquid composition, 2-butanol ([3]; Example 5, refluxed two hours): 19.5% | liquid composition, trichloroethylene ([3]; Example 5, refluxed two hours): 80.5% | vapor composition, 2-butanol ([3]; Example 5, refluxed two hours): 11.9% | vapor composition, trichloroethylene ([3]; Example 5, refluxed two hours): 88.1% | Relative Volatility ([3]; Example 5: 70 g azeotrope, 30 g agent, refluxed two hours): 1.75 | Relative Volatility [3, 9]: 1.6 | Relative Volatility (per theoretical plate) ([5]; 1 hr): 1.49 | Relative Volatility (average, per theoretical plate) ([5]; 2 hrs): 1.59 | Weight % 2-Butanol ([5]; bottoms, 1 hr): 30.7% | Weight % C2 H Cl3 ([5]; bottoms, 1 hr): 69.3% | Weight % 2-Butanol ([5]; bottoms, 2 hrs): 34.4% | Weight % C2 H Cl3 ([5]; bottoms, 2 hrs): 65.6% | Weight % 2-Butanol ([5]; overhead, 1 hr): 2.4% | Weight % C2 H Cl3 ([5]; overhead, 1 hr): 97.6% | Weight % 2-Butanol ([5]; overhead, 2 hrs): 1.8% | Weight % C2 H Cl3 ([5]; overhead, 2 hrs): 98.2%

Molecule: CCCCCCC(C)O (stereo not shown) [2-Octanol]
Relative Volatility [4, 10]: 2.7

Relative Volatility [2, 8]: 1.4
Molecule: CCCCCCC(C)=O [2-Octanone]

Molecule: CCCC(C)=O [2-Pentanone]
Relative Volatility [1]: 1.9

Relative Volatility [1]: 1.35
Molecule: CCCCC(=O)CC [3-Heptanone]

Relative Volatility [1]: 1.55
Molecule: CCCC(=O)CC [3-Hexanone]

Relative Volatility [3, 9]: 1.35
Molecule: CCC(C)(O)CC [3-Methyl-3-pentanol]

Relative Volatility [2, 8]: 1.35
Molecule: CCCCCC(=O)CC [3-Octanone]

Relative Volatility [3, 9]: 1.65
Molecule: OCCCc1ccccc1 [3-Phenyl-1-propanol]

Molecule: CC(C)CC(C)O (stereo not shown) [4-Methyl-2-pentanol]
Relative Volatility [4, 10]: 2.7

Molecule: CC(=O)CC(C)C [4-Methyl-2-pentanone]
Relative Volatility [1]: 1.5

Molecule: CC(=O)CCC(C)C [5-Methyl-2-hexanone]
Relative Volatility [2, 8]: 1.6 | Relative Volatility [1]: 1.3

Molecule: CC(=O)CCC(C)=O [Acetonylacetone]
Relative Volatility [2, 8]: 2.6

Relative Volatility [2, 8]: 1.6
Molecule: CC(=O)c1ccccc1 [Acetophenone]

Molecule: OCc1ccccc1 [Benzyl alcohol]
Relative Volatility [2, 8]: 3.5 | Relative Volatility [4, 10]: 2.0

Molecule: OC1CCCCC1 [Cyclohexanol]
Relative Volatility [2]: 3.5 | Relative Volatility [4, 10]: 2.4

Molecule: CC(=O)CC(C)(C)O [Diacetone alcohol]
Relative Volatility [4, 10]: 1.3 | Relative Volatility [3, 9]: 1.45

Relative Volatility [2, 8]: 1.4 | Relative Volatility [4, 10]: 1.6 | Relative Volatility [3, 9]: 1.35
Molecule: CC(C)CC(O)CC(C)C [Diisobutyl carbinol]

Relative Volatility [2, 8]: 1.4 | Relative Volatility [1]: 1.4
Molecule: CC(C)CC(=O)CC(C)C [Diisobutyl ketone]

Molecule: CN(C)C=O [Dimethylformamide]
Relative Volatility [2]: 4.5

Molecule: CCCC(=O)OCC [Ethyl butyrate]
Relative Volatility [1]: 1.5

Molecule: CCOCCC(=O)OCC [Ethyl ethoxy propionate]
Relative Volatility [1]: 1.45

Molecule: CCOC(=O)CC(C)C [Ethyl isovalerate]
Relative Volatility [2, 8]: 1.45 | Relative Volatility [1]: 1.5

Relative Volatility [1]: 2.4
Molecule: CCOC(=O)CC [Ethyl propionate]

Molecule: CCCCC(=O)OCC [Ethyl valerate]
Relative Volatility [2, 8]: 3.0 | Relative Volatility [1]: 1.65

Relative Volatility [4, 10]: 1.95 | Relative Volatility [3, 9]: 1.55
Molecule: CCCCCCCO [Heptyl alcohol]

Relative Volatility [1]: 1.4
Molecule: CCCCCCOC(C)=O [Hexyl acetate]

Molecule: CCCCCCO [Hexyl alcohol]
Relative Volatility [3, 9]: 2.6

Molecule: CC(=O)OCCC(C)C [Isoamyl acetate]
Relative Volatility [1]: 1.5

Relative Volatility [4, 10]: 1.9
Molecule: CC(C)CCO [Isoamyl alcohol]

Molecule: CC(=O)OCC(C)C [Isobutyl acetate]
Relative Volatility [1]: 1.4

Relative Volatility [1]: 1.65
Molecule: CCCC(=O)OCC(C)C [Isobutyl butyrate]

Molecule: CC(C)COC(=O)C(C)C [Isobutyl isobutyrate]
Relative Volatility [2]: 1.5 | Relative Volatility [1]: 1.45

Molecule: CC(C)CCCCCCCO [Isodecyl alcohol]
Relative Volatility [2]: 3.6

Molecule: CC(C)CCCO [Isohexyl alcohol]
Relative Volatility [4, 10]: 2.6

Relative Volatility [3, 9]: 1.35
Molecule: CC(C)CCCCCCO [Isononyl alcohol]

Molecule: CC(C)CCCCCO [Isooctanol]
Relative Volatility [4, 10]: 1.6

Molecule: CC(C)CCCCCO [Isooctyl alcohol]
Relative Volatility [3, 9]: 1.7

Molecule: CC1=CC(=O)CC(C)(C)C1 [Isophorone]
Relative Volatility [2, 8]: 1.45 | Relative Volatility [4, 10]: 1.6

Molecule: CC(=O)CCC(C)C [Methyl isoamyl ketone]
Relative Volatility [1]: 1.4

Molecule: CC(C)CC(C)O (stereo not shown) [Methyl isobutyl carbinol]
Relative Volatility [2, 8]: 2.4

Molecule: CC(=O)CC(C)C [Methyl isobutyl ketone]
Relative Volatility [1]: 1.3

Molecule: CC(=O)C(C)C [Methyl isopropyl ketone]
Relative Volatility [1]: 1.3

Relative Volatility [4, 10]: 3.8
Molecule: CCCCCCCCCO [Nonyl alcohol]

Relative Volatility [2, 8]: 2.5 | Relative Volatility [4, 10]: 1.55
Molecule: OCCc1ccccc1 [Phenethyl alcohol]

Molecule: O=S1(=O)CCCC1 [Sulfolane]
Relative Volatility [2, 8]: 2.5

Molecule: OCC1CCCO1 (stereo not shown) [Tetrahydrofurfuryl alcohol]
Relative Volatility [2]: 2.2 | Relative Volatility [4, 10]: 2.4 | Relative Volatility [3, 9]: 1.65

Molecule: CCCCCOC(C)=O [n-Amyl acetate]
Relative Volatility [1]: 1.7

Molecule: CCCCOC(C)=O [n-Butyl acetate]
liquid composition, t-butanol [1, 11]: 31.7% | liquid composition, trichloroethylene [1, 11]: 68.3% | vapor composition, t-butanol [1, 11]: 55.5% | vapor composition, trichloroethylene [1, 11]: 44.5% | relative volatility of t-butanol to trichloroethylene ([1]; Example 7: 70 g azeotrope, 30 g agent, refluxed fourteen hours): 1.7 | Relative Volatility [1]: 1.7 | Relative Volatility (per theoretical plate) ([6]; 1 hr): 1.63 | Relative Volatility (average, t-butanol to trichloroethylene, per theoretical plate) ([6]; 2 hrs): 2.15 | Weight % C2 H Cl3 ([6]; bottoms, 1 hr): 6.1% | Weight % t-Butanol ([6]; bottoms, 1 hr): 93.9% | Weight % C2 H Cl3 ([6]; bottoms, 2 hrs): 4.1% | Weight % t-Butanol ([6]; bottoms, 2 hrs): 95.9% | Weight % C2 H Cl3 [6, 12]: 95.9% | Weight % t-Butanol [6, 12]: 4.1% | Weight % C2 H Cl3 ([6]; overhead, 1 hr): 70.3% | Weight % t-Butanol ([6]; overhead, 1 hr): 29.7% | Weight % C2 H Cl3 ([6]; overhead, 2 hrs): 92.2% | Weight % t-Butanol ([6]; overhead, 2 hrs): 7.8% | Weight % C2 H Cl3 [6, 13]: 7.8% | Weight % t-Butanol [6, 13]: 92.2%

Relative Volatility [2, 8]: 2.4 | Relative Volatility [4, 10]: 3.9
Molecule: CCCCCCCCCCO [n-Decanol]

Molecule: CCCCCCO [n-Hexyl alcohol]
Relative Volatility [2, 8]: 3.1

Relative Volatility [2, 8]: 2.5
Molecule: CCCCCCCCCO [n-Nonyl alcohol]

Molecule: CCCCCCCCO [n-Octanol]
Relative Volatility [2, 8]: 2.3 | liquid composition, isobutanol ([4]; Example 3, refluxed five hours): 6.1% | liquid composition, trichloroethylene ([4]; Example 3, refluxed five hours): 93.9% | vapor composition, isobutanol ([4]; Example 3, refluxed five hours): 4.6% | vapor composition, trichloroethylene ([4]; Example 3, refluxed five hours): 95.4% | Relative Volatility ([4]; Example 3: 70 g azeotrope, 30 g agent, refluxed five hours): 1.3 | Relative Volatility [4, 10]: 1.3 | Relative Volatility (per theoretical plate) ([7]; 1 hr): 1.275 | Relative Volatility (average, per theoretical plate) ([7]; 2 hrs): 1.31 | Weight % C2 H Cl3 ([7]; bottoms, 1 hr): 84.0% | Weight % Isobutanol ([7]; bottoms, 1 hr): 16.0% | Weight % C2 H Cl3 ([7]; bottoms, 2 hrs): 84.8% | Weight % Isobutanol ([7]; bottoms, 2 hrs): 15.2% | Weight % C2 H Cl3 ([7]; overhead, 1 hr): 96.9% | Weight % Isobutanol ([7]; overhead, 1 hr): 3.1% | Weight % C2 H Cl3 ([7]; overhead, 2 hrs): 97.7% | Weight % Isobutanol ([7]; overhead, 2 hrs): 2.3%

Molecule: CCCOC(C)=O [n-Propyl acetate]
Relative Volatility [1]: 2.9
